# In patent US8349553B2, “Jasmonate based assays for identifying compounds that selectively inhibit mitochondrial bound hexokinases” (Ramot at Tel Aviv University Ltd., priority 2007, dated 2013):
# “Also recorded” adds a separate entry of the source.
# Assays:
# [1] = test system: mitochondria-bound hexokinase (mitochondrial fraction from a CT-26 tumor); assay: Hexokinase detachment assay, mitochondrial fraction of CT-26 tumor; format: biochemical, murine; conditions: CT-26 tumor mitochondrial fraction; 30 minutes of incubation
# Method: Mitochondrial fraction was prepared by mechanical lysis and differential centrifugation. All stages were performed on ice. Cells or extracted tissues were washed with PBS and disrupted by homogenization in extraction buffer (Sucrose 250 mM, HEPES-NaOH 10 mM, pH 7.2) freshly supplemented with 0.1 mM EDTA and Protease Inhibitors cocktail (Sigma). For each gram of cells or tissue, 4 volumes of extraction buffer were applied. The homogenate volume was doubled with the extraction buffer, and tissue and cell debris as well as nuclei were pelleted by centrifugation of 1,000 g for 10 minutes. The supernatant was further spun at 13,000 g for 10 minutes twice. Endoplasmic reticulum layer was removed. The pellet, designated as the mitochondrial fraction, was suspended in the appropriate buffer, depending on the assay for which the mitochondrial fraction was prepared. Mitochondrial fractions were used immediately or stored at −196° C.
# To determine the amount of hexokinase detached from the mitochondrial fraction by different agents, mitochondria were incubated with the agent of interest and pelleted by centrifugation. Activity of hexokinase in the supernatant (i.e., activity of the detached hexokinase) was determined spectrophotometrically at 340 nm. The reaction couples the ADP formation by hexokinase, consuming the ADP for pyruvate formation by pyruvate kinase, and reducing the pyruvate with NADH by lactate dehydrogenase. Briefly, mitochondria were suspended in incubation buffer (HEPES pH 7.4 20 mM, Sucrose 0.25M, Glucose 10 mM, KCl5 mM, MgCl2 10 mM; 0.2 mg/test, 100 μL/test) and incubated as described below. […]
# Methyl jasmonate perturbs mitochondria directly in a PTPC-dependent manner (Rotem, 2005). In order to determine whether methyl jasmonate is able to detach hexokinase from mitochondrial fraction isolated from CT-26 tumors, the activity of hexokinase in the supernatant of mitochondrial fraction treated for different time periods was measured. […] The activity of unbound hexokinase was measured and compared to the activity of spontaneously detached hexokinase (control).
# [2] = test system: hexokinase; assay: Hexokinase activity, agent added directly to the coupled assay mixture; format: biochemical; conditions: coupled pyruvate kinase/lactate dehydrogenase assay, 340 nm
# [3] = target: T1, purified rat brain HKI (Rattus norvegicus, UniProt P05708); assay: Surface plasmon resonance analysis of jasmonate-HK interactions; format: binding; conditions: analyte injected at varying concentrations (MJ 0.375-6 mM); 25° C.
# T1 construct: from tissue; host or cells: rat brain mitochondria
# Method: Rat brain HK-I was purified as following, crude brain mitochondria containing tightly bound HK-I were incubated with 1.2 mM glucose-6-phosphate and 0.5 mM K-EDTA to release the enzyme into the soluble fraction. Further purification of HK-I was achieved by affinity chromatography on Cibacron Blue-agarose (Pharmacia). The purified enzyme was concentrated and washed in 0.5 mM K-EDTA, 10 mM glucose, 1 mM dithiothreitol and 10 mM K-Hepes, pH 7.8, using an Amicon device and a 50,000 Da molecular mass cut-off membrane (Spectrum; type C). The concentrated enzyme (up to 1 mg/ml; 30-60 units/mg) was frozen in liquid nitrogen and stored at −80° C. until use (Azoulay-Zohar, 2004).
# Surface plasmon resonance (SPR) is an optical biosensor technique that measures molecular binding events at a metal surface by detecting changes in the local refractive index. SPR is the surface-sensitive technique ideal for studying interactions between immobilized biomolecules (ligands) and a solution-phase analyte. The biosensor response is directly proportional to the mass of the bound analyte. The advantage of SPR for investigation of small molecular weight analytes over conventional techniques such as fluorescence or enzyme-linked immunosorbent assay is detection of an analyte being label-free and direct, without the need for labeling of analyte or multistep detection protocols (sandwich assay). […]
# [4] = test system: mitochondrial fraction of mouse liver; assay: Mitochondrial swelling assay, mouse liver; format: biochemical; conditions: 1 mM
# Method: (§1) Freshly isolated mitochondrial fraction was washed with extraction buffer to remove EDTA and resuspended in swelling buffer (Mannitol 220 mM, Sucrose 70 mM, Tris, pH 7.2, 150 mM, KH2PO4, pH 7.2, 0.2 mM; 0.2 mg in 100 μL) freshly supplemented with potassium succinate, pH 7.2, 5 mM. Every component was sodium-free. Optical density was monitored at the wave length of 540 nm for 2-5 minutes before the addition of the examined reagents, e.g. methyl jasmonate, and for additional 20 minutes afterwards.
# (§2) In order to examine the consistency of the relationship between the ability of methyl jasmonate to detach bound hexokinase and mitochondrial damage, methyl jasmonate was tested in mouse brain in comparison to mouse liver. The comparison was performed due to known differences of mitochondrial hexokinase content between mouse brain vs. its liver. It is well established in the art that brain mitochondrial fraction is rich in bound hexokinase, while liver mitochondrial fraction is essentially devoid of it (Wilson, 1995). […] Mitochondrial fractions were incubated for either 10, 30 or 60 minutes at 37° C. The activity of unbound hexokinase was measured and compared to the activity of spontaneously (control) detached hexokinase. Consequently, the ability of methyl jasmonate to induce swelling in mitochondrial fraction isolated from mouse brain and liver was tested.
# [5] = test system: mitochondrial fraction of mouse brain; assay: Mitochondrial swelling assay, mouse brain; format: biochemical; conditions: 1 mM
# Method: as §1, §2
# [6] = Fingrut, 2002, 2005, Rotem; cited from earlier work
# [7] = test system: CT26 cells transfected with pcDNA3-HKII or pcDNA3; conditions: CT26; 3.75 μM; 3 hours exposure
# Method: Cell death was determined by trypan blue exclusion. […] Alternatively, cytotoxicity was determined using hemacolor staining. Upon completion of a given experiment, cells were stained and the percentage of dead (detached) cells was determined spectrophotometrically.
# CT26 cells were transfected with pcDNA3-HKII or pcDNA3, using FuGene HD transfection reagent (Roche, Basel, Switzerland), according to the manufacturer's instruction followed by selection using G418.
# To examine the effect of hexokinase over-expression on methyl jasmonate action, CT26 cells were transfected with plasmids, pcDNA3-HKII or pcDNA3, encoding for hexokinase II over-expression and a control plasmid, respectively (Zaid, 2005). Cells were seeded in 96-well plates and allowed to adhere. Cells were exposed to methyl jasmonate for 60 minutes prior to ATP determination (FIG. […] 9B).
# T1 sequence (P05708 whole entry): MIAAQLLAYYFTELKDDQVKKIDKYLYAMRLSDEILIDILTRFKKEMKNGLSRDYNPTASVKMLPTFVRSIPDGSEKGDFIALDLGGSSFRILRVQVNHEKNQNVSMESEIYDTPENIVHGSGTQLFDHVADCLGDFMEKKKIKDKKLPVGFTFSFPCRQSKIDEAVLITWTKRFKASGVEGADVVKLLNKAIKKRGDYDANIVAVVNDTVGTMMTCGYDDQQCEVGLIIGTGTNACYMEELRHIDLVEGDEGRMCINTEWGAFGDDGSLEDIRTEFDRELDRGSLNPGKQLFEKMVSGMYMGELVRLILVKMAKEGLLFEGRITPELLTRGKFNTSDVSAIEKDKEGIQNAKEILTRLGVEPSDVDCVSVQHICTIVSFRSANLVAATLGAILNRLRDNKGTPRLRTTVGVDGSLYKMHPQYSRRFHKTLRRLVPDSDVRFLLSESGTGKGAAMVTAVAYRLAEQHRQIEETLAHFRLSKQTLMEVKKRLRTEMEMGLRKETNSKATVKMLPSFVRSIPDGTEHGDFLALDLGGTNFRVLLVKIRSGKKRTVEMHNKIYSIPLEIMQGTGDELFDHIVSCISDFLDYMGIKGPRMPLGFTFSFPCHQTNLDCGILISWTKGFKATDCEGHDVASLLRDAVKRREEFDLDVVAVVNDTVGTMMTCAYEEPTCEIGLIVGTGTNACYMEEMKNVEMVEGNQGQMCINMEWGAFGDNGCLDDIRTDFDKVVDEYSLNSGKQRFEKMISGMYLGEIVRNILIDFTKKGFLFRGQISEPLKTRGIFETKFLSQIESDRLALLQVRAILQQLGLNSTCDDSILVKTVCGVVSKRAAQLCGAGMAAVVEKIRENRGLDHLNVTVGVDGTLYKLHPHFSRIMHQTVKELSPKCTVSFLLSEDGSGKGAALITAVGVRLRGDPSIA
Compound,"detachment of hexokinase (activity of unbound hexokinase compared to control), dose dependence [1]",influence on hexokinase activity when added directly to the assay mixture [2],binding to immobilized hexokinase (SPR) [3],mitochondrial swelling (optical density at 540 nm) [4],mitochondrial swelling (optical density at 540 nm) [5],cytotoxicity relative to methyl jasmonate [6],"cytotoxicity (hemacolor), hexokinase II over-expressing vs. control cells [7]"
CC/C=C\C[C@H]1C(=O)CC[C@@H]1CC(=O)O [jasmonic acid],did not show considerable detachment of hexokinase from mitochondrial fraction; also recorded: less effective than methyl jasmonate at detaching hexokinase from mitochondrial fraction,"neither methyl jasmonate nor jasmonic acid added directly to the assay mixture, influence hexokinase activity",did not bind hexokinase at all,not in liver,to a marginal extent,lower cytotoxicity than methyl jasmonate,
CN[C@@H]1C[C@H]2O[C@@](C)([C@@H]1OC)n1c3ccccc3c3c4c(c5c6ccccc6n2c5c31)C(=O)NC4 [staurosporine],,,,,,,similarly decreased by hexokinase II over-expression
